In patent US20260306403A1, “MODIFIED LIPOSOME FOR DRUG DELIVERY, USE OF LIPOSOME FOR DRUG DELIVERY, ESPECIALLY WITH ANTI-CANCER ACTIVITY, AND WAYS TO LOAD LIPOSOME WITH DRUGS, ESPECIALLY WITH ANTI-CANCER ACTIVITY” (BS BIOTECHNA SPOLKA AKCYJNA, priority 2023, published 2026):

Tests used:
[1] = Acute toxicity test on Zebrafish larvae, emetine and 14 pH EM liposomes, 24 and 48 h; design: species or system Zebrafish (Danio rerio); conditions: in vivo, 48 h exposure, 2 dpf larvae, calculated for emetine, read-out: half maximal lethal concentration (LC50)
Procedure: In order to compare the toxicity of emetine and 14 pH EM liposomes with emetine, an acute toxicity test was conducted on Zebrafish (Danio rerio). The test was designed to determine the acute or lethal toxicity of the formulations on the embryonic stages of the fish. Briefly, Zebrafish 2 dpf larvae were treated with emetine and 14 pH EM liposomes with emetine for 24 and 48 hours at concentrations ranging from 0.73 μM to 125 μM calculated for emetine. […] The water for embryo culture and solution preparation was embryo culture medium (E3 solution: 5 mmol/L NaCl, 0.17 mmol/L KCl, 0.33 mmol/L CaCl2 and 0.33 mmol/L MgSO4, containing no methylene blue, and with a pH value of approximately 7.2). The experiment was carried out in 24-well plates, 5 embryos per well, 10 per group. The plate was covered and kept in an incubator set at 28±0.5° C. with a light/dark period of 12/12 hours. During the exposure period, larvae were tracked every 24 hours and four visual observations, including coagulation of fertilised eggs, lack of somite formation, lack of separation of tail bud from yolk sac and lack of heartbeat, were recorded as indicators of mortality.

Zebrafish larvae = assay: Absorption of fluorescently labelled emetine, free and in pH-type liposomes, by Zebrafish larvae; type: in vivo
Procedure: To compare the uptake of emetine and pH-type liposomes with emetine, Zebrafish larvae were exposed to fluorescently labelled free emetine and fluorescently labelled emetine encapsulated in pH-type liposomes (synthesis identical to that of 14pHEM) for 4 and 48 h in a concentration range from 0.73 μM to 14.7 μM for emetine and 4.41 μM to 8.82 μM for pH-type liposomes with fluorescent emetine per emetine. Photographs of fish from each group were taken at the final time point to monitor the intensity of fluorescence from absorbed emetine. A Discovery V8 stereoscopic optical microscope and Zeiss equipment were used for the observations.

[2] = phase I and II clinical trials; cited from earlier work
[3] = Acute toxicity test on Zebrafish larvae, emetine / BEM and staurosporine / BST liposomes, 96 h; type: in vivo, Zebrafish (Danio rerio); conditions: 96 h incubation, staurosporine free or in BST
Procedure: In order to compare the toxicity of emetine and staurosporine with the same drugs loaded into BpH liposomes, an acute toxicity test was conducted on Zebrafish (Danio rerio). The test was designed to determine the acute or lethal toxicity of the chemicals on the embryonic stages of the fish. Briefly, zebrafish larvae were treated with emetine and […] liposomes or staurospoine and staurosporine with BST liposomes for a period of 96 hours.
The embryo culture fluid and solution preparation was embryo culture medium (E3 solution: 5 mmol/L NaCl, 0.17 mmol/L KCl, 0.33 mmol/L CaCl2 and 0.33 mmol/L MgSO4, containing no methylene blue, and with a pH value of approximately 7.2). The experiment was carried out in 24-well plates, 5 embryos per well, 10 per group. The plate was covered and kept in an incubator set at 28±0.5° C. with a light/dark period of 12/12 hours. During the exposure period, larvae were tracked every 24 h and four visual observations, including coagulation of fertilised eggs, lack of somite formation, lack of separation of tail bud from yolk sac and lack of heartbeat, were recorded as indicators of mortality. At the end of the exposure period (96 hpf), acute toxicity was determined based on a positive result from any of the four recorded visual observations and the LC50 was calculated. Liposomes alone without drug loading were also tested.

| Compound | LC50 at 48 h [1] | location of absorbed emetine in larvae (Zebrafish larvae; fluorescence microscopy) | uptake / amount of absorbed emetine (Zebrafish larvae; free 1.47, 3.67, 7.35 μM, in liposomes 4.41 and 8.82 μM) | therapeutic index [2] | toxicity on increasing the dose [2] | LC50 at 96 h [3] |
| --- | --- | --- | --- | --- | --- | --- |
| CC[C@H]1CN2CCc3cc(OC)c(OC)cc3[C@@H]2C[C@@H]1C[C@H]1NCCc2cc(OC)c(OC)cc21 [emetine] | 5.64 µM | within the yolk of the larvae, especially in the liver and intestine region | increases with dose | very limited | cardiac toxicity | – |
| CN[C@@H]1C[C@H]2O[C@@](C)([C@@H]1OC)n1c3ccccc3c3c4c(c5c6ccccc6n2c5c31)C(=O)NC4 [staurosporine] | – | – | – | – | – | 0.017 µM |
